In publication PMC9842066, “Implantable device actuated by manual button clicks for noninvasive self‐drug administration” (Bioengineering & Translational Medicine, 2022):

How the values were obtained:
[1] = tested on: STZ-induced diabetic rats; assay: PD studies on insulin and glucagon delivery (plasma glucose); format: in vivo, Wistar rats; conditions: hyperglycemic STZ-induced Type 1 diabetic rats (>400 mg dl^−1); 1-U insulin by SC injection or BCD; n = 4 per group
Description: For this experiment, we employed a Type 1 diabetic animal model, streptozotocin (STZ)‐induced diabetic rats.[26], [28] To induce this animal model, Wistar rats were fasted overnight, and then intraperitoneally injected with a STZ solution (60 mg kg^−1) prepared in 0.09 M citrate buffered saline (pH 4.0) to destroy the beta‐cells of the pancreas. Three days after the STZ injection, the plasma glucose level was measured with a glucometer, and the animals with a plasma glucose level > 400 mg dl^−1 were screened for use. Among them, we employed two distinct animal models of hyperglycemia and hypoglycemia, respectively. For a hyperglycemic condition, the animals were used as they were with a blood glucose level of >400 mg dl^−1.[28], [29] For a hypoglycemic condition, the animals were fasted overnight and the ones with a plasma glucose level of <72 mg dl^−1 were screened for use.[30] The hyperglycemic animals were treated with 1‐U insulin by an SC injection or implanted BCD: Inj‐Insulin (n = 4) and BCD‐Insulin (n = 4), respectively. For this, we utilized a commercially available insulin solution (100 U ml^−1; NovoRapid, Novo Nordisk). […] After administration, the plasma glucose level was measured with a glucometer at scheduled times.

[2] = Stability assessment of exenatide and insulin in the BCD
From the text: Supplementary Figure 5. […] To obtain the CD spectra, the solution was placed in a 1-mm path length cuvette (Chirascan plus, Applied Photophysics, Surrey, UK) and scanned over range of 200-260 nm.

Q: For “insulin: commercially available insulin solution (100 U ml^−1; NovoRapid, Novo Nordisk)”, which “Change in plasma glucose level after insulin” value [1] is on record?
A: The value was “decrease”.

Q: And the “Stability during 4-week period in the BCD” value ([2]; 4 weeks, Figure S5)?
A: The value was “well retained”.

Q: And the “Drop of blood glucose level with stored versus fresh insulin” value ([2]; insulin stored in BCD at 37 °C for 28 days, injected subcutaneously to diabetic animals, n = 3)?
A: The value was “similar”.

Q: What about the “Drug content (HPLC) and far-UV CD spectra after incubation in the BCD” value ([2]; loaded BCDs stored at 37 °C for 28 days, versus fresh drug solution, n = 3, HPLC and CD 200-260 nm) of the same substance?
A: Its value is “did not vary”.
